From patent US12139471B2, “NLRP3 inflammasome inhibitors” (Novartis AG, priority 2019, dated 2024) come the findings set out here.

Counter-ions that a name gives are not always drawn.

One test deals with T1, NLRP3 inflammasome (Homo sapiens, UniProt Q96P20).
T1 construct: host or cells: THP-1 cells, PMA-differentiated
The test is described as follows: IL-1β secretion assay (nigericin-activated, PMA-differentiated THP-1 cells, HTRF). In kind it is cell-based. The note with it: PMA-differentiated THP-1 cells; compound 1 hour, then 15 μM nigericin, 3 hours; IL-1β by HTRF; read-out: IL-1β IC50. As for the experimental part:
10 μL supernatant was removed, and IL-1β levels were monitored using an HTRF assay (CisBio, #62IL1PEC) according to manufacturers' instructions. Viability and pyroptosis was monitored with the addition of PrestoBlue cell viability reagent (Life Technologies, #A13261) directly to the cell culture plate.
IC50 values were calculated from the plot of percentage of inhibition versus the inhibitor concentration by a logistics fit according to: y=A2+(A1−A2)/(1+(x/IC50)^p) where y is the %-inhibition at the inhibitor concentration, x. A1 is the lowest inhibition value, i.e. 0%, and A2 the maximum inhibition value, i.e. 100%. The exponent, p, is the Hill coefficient. The curve fitting was conducted with an internally developed software suite.
NLRP3-dependent IL-1β secretion was stimulated in PMA-differentiated THP-1 cells by the addition of nigericin, and cytokines were measured in the […] after 3 hours. As discussed above, activation of the NLRP3 inflammasome requires both an NF-kB-dependent priming step and the addition of a NLRP3 activator.
Background: In TR-FRET formats the signal depends on donor and acceptor labels being close together.

Test [1] relates to NF-kB-dependent TNF-α secretion. The experiment in a line: TNF-α secretion assay (counter screen, THP-1 cells, HTRF). In kind it is cell-based. The note with it: undifferentiated THP-1 cells, Pam3CSK4-stimulated, 3 hours, TNF-α by HTRF. In general terms: The purpose of a counterscreen is to sort out artefacts and off-target activity.
Description: Monocytic THP-1 cells were maintained according to providers' instructions in RPMI media as described above. […] Experimental compounds were prepared and added as described above. TNF-α secretion was triggered by the addition of either 1 μg/mL LPS (Sigma, #L4391) or 100 ng/mL Pam3CSK4 (Invivogen, #tlri-pms) depending on the experiment, and cells were incubated for 3 hours. 10 μL supernatant was removed, and TNF-α levels were monitored using an HTRF assay (CisBio, #62TNFPEC) according to manufacturers' instructions. Viability was monitored as described above.

T1 sequence (Q96P20 whole entry): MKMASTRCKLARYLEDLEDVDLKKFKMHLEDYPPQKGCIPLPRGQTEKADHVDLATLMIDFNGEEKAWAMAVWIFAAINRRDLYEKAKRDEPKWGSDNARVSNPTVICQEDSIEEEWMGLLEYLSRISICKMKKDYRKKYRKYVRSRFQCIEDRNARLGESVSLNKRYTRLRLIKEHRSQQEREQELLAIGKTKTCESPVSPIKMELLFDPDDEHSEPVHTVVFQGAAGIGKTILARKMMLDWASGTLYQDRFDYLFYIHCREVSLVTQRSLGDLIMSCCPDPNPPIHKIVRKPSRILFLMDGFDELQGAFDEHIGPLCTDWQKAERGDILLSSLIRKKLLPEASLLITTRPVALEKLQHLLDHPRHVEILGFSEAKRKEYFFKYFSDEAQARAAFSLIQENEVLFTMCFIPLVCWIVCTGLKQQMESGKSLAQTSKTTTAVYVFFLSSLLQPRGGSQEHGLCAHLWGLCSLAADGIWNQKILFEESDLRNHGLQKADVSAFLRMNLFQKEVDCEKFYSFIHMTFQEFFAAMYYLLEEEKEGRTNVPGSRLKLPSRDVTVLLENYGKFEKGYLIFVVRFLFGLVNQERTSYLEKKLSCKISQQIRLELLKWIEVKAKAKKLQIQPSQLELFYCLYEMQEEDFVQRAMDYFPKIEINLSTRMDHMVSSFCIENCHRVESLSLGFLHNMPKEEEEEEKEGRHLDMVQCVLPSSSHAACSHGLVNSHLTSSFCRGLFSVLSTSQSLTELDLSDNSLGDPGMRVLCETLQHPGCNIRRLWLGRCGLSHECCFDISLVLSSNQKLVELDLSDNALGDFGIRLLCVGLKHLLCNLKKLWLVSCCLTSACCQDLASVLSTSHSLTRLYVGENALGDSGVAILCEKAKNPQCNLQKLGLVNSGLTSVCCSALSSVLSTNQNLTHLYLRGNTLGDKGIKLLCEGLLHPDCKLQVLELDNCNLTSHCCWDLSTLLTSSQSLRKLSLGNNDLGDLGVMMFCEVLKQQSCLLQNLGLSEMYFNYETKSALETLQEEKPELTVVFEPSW

In the case of “(3R)-3-((6-(2-Hydroxy-6-methyl-4-(trifluoromethyl)phenyl)-4-methylpyridazin-3-ylamino)-1-methylpiperidine 1-oxide TFA-salt [Ex 104]”, the IC50 at NLRP3 inflammasome was 59 nM; in test [1] it was more than 100000 nM.
Consider `Cc1cc(C(F)(F)F)cc(O)c1-c1ccc(NC[C@@H](O)C(C)C)nn1` (single isomer, unassigned) [Ex 90a], for which the IC50 on NLRP3 inflammasome turned out to be 64.2 nM.
The same measure, in the same setting: the result for `Cc1cc(C(F)(F)F)cc(O)c1-c1ccc(NC[C@@H]2CCCCN2)nn1` [Ex 21, (S)-3-Methyl-2-(6-((piperidin-2-ylmethyl)amino)pyridazin-3-yl)-5-(trifluoromethyl)phenol] reads 48.4 nM; that for `Cc1cc(C(F)(F)F)cc(O)c1-c1ccc(NC[C@](C)(O)CO)nn1` (single isomer, unassigned) [Ex 88a], 62.3 nM.
The same measure, in the same setting: to `Cc1cc(C(F)(F)F)cc(O)c1-c1ccc(NC2CCC3CCC2N3CCO)nn1` (single isomer, unassigned) [Ex 86a] belongs 175 nM.
Same read-out and setting: the result for `Cc1cc(C(F)(F)F)cc(O)c1-c1ccc(NC2(C)CCCN(C)C2)nn1` (stereo not drawn) [Ex 52, 2-(6-((1,3-Dimethylpiperidin-3-yl)amino)pyridazin-3-yl)-3-methyl-5-(trifluoromethyl)phenol TFA-salt] reads 186 nM; that for `Cc1cc(C(F)(F)F)cc(O)c1-c1ccc(NCC(C)(C)N)nn1` [Ex 29, 2-(6-((2-Amino-2-methylpropyl)amino)pyridazin-3-yl)-3-methyl-5-(trifluoromethyl)phenol], 169 nM.
On to `Cc1cc(C)c(-c2ccc(NCCc3ccc(S(N)(=O)=O)cc3)nn2)c(O)c1` [Ex 103, 4-(2-((6-(2-Hydroxy-4,6-dimethylphenyl)pyridazin-3-yl)amino)ethyl)benzenesulfonamide], for which the IC50 at NLRP3 inflammasome came to 136 nM.
For `Cc1cc(C(F)(F)F)cc(O)c1-c1ccc(NC[C@H](O)C(C)C)nn1` (single isomer, unassigned) [Ex 90b], the IC50 on NLRP3 inflammasome is 115 nM.
The same measure, in the same setting: to `Cc1cc(N[C@H]2C[C@@](C)(O)C2)nnc1-c1ccc(OC(F)(F)F)cc1O` [Ex 81, 2-(6-(((cis)-3-Hydroxy-3-methylcyclobutyl)amino)-4-methylpyridazin-3-yl)-5-(trifluoromethoxy)phenol] belongs 130 nM; to `Cc1cc(C(F)(F)F)cc(O)c1-c1ccc(NC[C@H]2CC(F)(F)CN2)nn1` [Ex 23, (R)-2-(6-(((4,4-Difluoropyrrolidin-2-yl)methyl)amino)pyridazin-3-yl)-3-methyl-5-(trifluoromethyl)phenol], 93.4 nM.
The same measure, in the same setting: to `Cc1cc(C(F)(F)F)cc(O)c1-c1ccc(N[C@H]2CCC[C@H](O)C2)nn1` [Ex 57, 2-(6-(((1S,3S)-3-Hydroxycyclohexyl)amino)pyridazin-3-yl)-3-methyl-5-(trifluoromethyl)phenol] belongs 224 nM; to `C[C@]1(O)C[C@@H](Nc2cc(C(F)(F)F)c(-c3ccc(C(F)(F)F)cc3O)nn2)C1` [Ex 66, 2-(6-(((cis)-3-Hydroxy-3-methylcyclobutyl)amino)-4-(trifluoromethyl)pyridazin-3-yl)-5-(trifluoromethyl)phenol], 187 nM.
Turning to `Cc1cc(C(F)(F)F)cc(O)c1-c1ccc(NC2CCC3CCC2N3C)nn1` (single isomer, unassigned) [Ex 85a], the IC50 on NLRP3 inflammasome was 148 nM.
Still for that read-out and setting: the result for `Cc1cc(N[C@H]2C[C@@](C)(O)C2)nnc1-c1ccc(C(F)(F)F)cc1O` [Ex 55, 2-(6-(((cis)-3-Hydroxy-3-methylcyclobutyl)amino)-4-methylpyridazin-3-yl)-5-(trifluoromethyl)phenol] reads 45.8 nM; that for `Cc1cc(-c2c(C)cc(C(F)(F)F)cc2O)nnc1NCC(C)(C)O` [Ex 72, 2-(6-((2-Hydroxy-2-methylpropyl)amino)-5-methylpyridazin-3-yl)-3-methyl-5-(trifluoromethyl)phenol], 44.9 nM; that for `Cc1cc(C(F)(F)F)cc(O)c1-c1ccc(N[C@H]2C[C@](O)(C(F)(F)F)C2)nn1` [Ex 67, 2-(6-(((cis)-3-Hydroxy-3-(trifluoromethyl)cyclobutyl)amino)pyridazin-3-yl)-3-methyl-5-(trifluoromethyl)phenol], 40.1 nM.
In the case of `Cc1cc(C(F)(F)F)cc(O)c1-c1ccc(N[C@@H]2CCCN(C)C2=O)nn1` [Ex 59, (R)-3-((6-(2-Hydroxy-6-methyl-4-(trifluoromethyl)phenyl)pyridazin-3-yl)amino)-1-methylpiperidin-2-one], the IC50 at NLRP3 inflammasome came to 35.9 nM.
Regarding `CCN1CCC[C@H]1CNc1ccc(-c2c(C)cc(C(F)(F)F)cc2O)nn1` [Ex 8, (S)-2-(6-(((1-Ethylpyrrolidin-2-yl)methyl)amino)pyridazin-3-yl)-3-methyl-5-(trifluoromethyl)phenol], on NLRP3 inflammasome, the IC50 worked out at 24.1 nM.
On to `Cc1cc(C(F)(F)F)cc(O)c1-c1ccc(NC[C@@H]2CC(F)(F)CN2)nn1` [Ex 22, (S)-2-(6-(((4,4-Difluoropyrrolidin-2-yl)methyl)amino)pyridazin-3-yl)-3-methyl-5-(trifluoromethyl)phenol], for which the IC50 at NLRP3 inflammasome worked out at 80.7 nM.
On the same count and under the same terms, the result for `Cc1cc(C(F)(F)F)cc(O)c1-c1ccc(Nc2cncnc2)nn1` [Ex 43, 3-Methyl-2-(6-(pyrimidin-5-ylamino)pyridazin-3-yl)-5-(trifluoromethyl)phenol] reads 281 nM; that for `Cc1cc(C(F)(F)F)cc(O)c1-c1ccc(N[C@H]2CC[C@H](O)[C@@H]2O)nn1` (single isomer, unassigned) [Ex 89a], 59.7 nM; that for `Oc1cc(C(F)(F)F)cc(Cl)c1-c1ccc(N[C@H]2C[C@@H](O)C2)nn1` [Ex 31, 3-Chloro-2-(6-((cis-3-hydroxycyclobutyl)amino)pyridazin-3-yl)-5-(trifluoromethyl)phenol], 167 nM.
The same measure, in the same setting: to `Cc1cc(-c2c(C)cc(C(F)(F)F)cc2O)nnc1NC1CCC(=O)N(C)C1` (stereo not drawn) [Ex 99, 5-((6-(2-Hydroxy-6-methyl-4-(trifluoromethyl)phenyl)-4-methylpyridazin-3-yl)amino)-1-methylpiperidin-2-one] belongs 75 nM.
Same read-out and setting: the result for `Cc1cc(N[C@H]2C[C@@](C)(O)C2)nnc1-c1ccc(Cl)cc1O` [Ex 68, 5-Chloro-2-(6-(((cis)-3-hydroxy-3-methylcyclobutyl)amino)-4-methylpyridazin-3-yl)phenol] reads 89.3 nM.
As for `Cc1cc(C(F)(F)F)cc(O)c1-c1ccc(NCC(O)(C(F)(F)F)C(F)(F)F)nn1` [Ex 10, 3-Methyl-2-(6((3,3,3-trifluoro-2-hydroxy-2-(trifluoromethyl)propyl)amino)pyridazin-3-yl)-5-(trifluoromethyl)phenol], the IC50 at NLRP3 inflammasome was 349 nM.

A word on the IC50: it is the midpoint of a concentration-inhibition curve.
